Nine molecules from ChEMBL document CHEMBL1201862, “PubChem BioAssay data set” (2004) can be followed below.

Each structure is given as a SMILES string.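 Five concentrations, 48 hours, 96-well plates. Abbreviation: GI50, concentration required for 50% inhibition of growth.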 Active and inactive are the calls of the source. Cut-off read from the data, not from the text of the source: active = GI50 up to about 1.1 µM and inactive = higher. Where only a bound is given, the exact number is not on record here.

Among the test systems are UO-31; SK-MEL-5; IGROV-1; 786-0; HCT-15; NCI-H226; TK-10; ACHN; SNB-19; NCI-H23; HT-29; SK-OV-3; OVCAR-8; HOP-92; NCI/ADR-RES; HOP-62; DU-145; OVCAR-4.
Holding throughout (experiment): DTP human tumour cell line panel, 48 h

Regarding `CCSc1n/c(=C\c2ccco2)c2nncn12`, the GI50 in the assay on UO-31 is > 100 µM (inactive); in the assay on SK-MEL-5 it was > 100 µM (inactive); in the assay on IGROV-1, > 100 µM (inactive); in the assay on 786-0 it was > 100 µM (inactive); in the assay with HCT-15 it was more than 100 µM; in the assay with NCI-H226 it was > 100 µM (inactive). Moreover, the GI50 with TK-10, in the assay on ACHN, in the assay on SNB-19, with NCI-H23, in the assay on HT-29 and in the assay on SK-OV-3 was > 100 µM (inactive) throughout. The GI50 in the assay with OVCAR-8 was > 100 µM (inactive); in the assay on HOP-92, 40.7 µM (inactive); in the assay on NCI/ADR-RES, > 100 µM (inactive); in the assay on HOP-62, > 100 µM (inactive); with DU-145, > 100 µM (inactive).

Regarding `O=C(NC/C(Cl)=C/Cl)Nc1cccc2c1CCCC2`, the GI50 is > 100 µM (inactive) in the assay on UO-31; > 100 µM (inactive) in the assay with SK-MEL-5; > 100 µM (inactive) in the assay on OVCAR-4; > 100 µM (inactive) in the assay on IGROV-1; 89.3 µM (inactive) in the assay with 786-0; more than 100 µM in the assay on HCT-15. Besides, the GI50 was > 100 µM (inactive) with NCI-H226; 46.7 µM (inactive) in the assay with TK-10; > 100 µM (inactive) in the assay on ACHN; > 100 µM (inactive) in the assay with SNB-19; > 100 µM (inactive) with NCI-H23; 38.5 µM (inactive) with HT-29. Further, the GI50 with SK-OV-3 is > 100 µM (inactive); in the assay with OVCAR-8 it was > 100 µM (inactive); in the assay with HOP-92, 55.7 µM (inactive); in the assay on NCI/ADR-RES it was > 100 µM (inactive); in the assay with HOP-62, > 100 µM (inactive); in the assay on DU-145 it was > 100 µM (inactive).

`CCC(C)(C)/C(CC(O)(C(F)(F)F)C(F)(F)F)=N\O`: the GI50 with UO-31 was > 100 µM (inactive); in the assay with SK-MEL-5, > 100 µM (inactive); in the assay on OVCAR-4 it was > 100 µM (inactive); in the assay on IGROV-1, > 100 µM (inactive); in the assay on 786-0 it was > 100 µM (inactive); with HCT-15, more than 100 µM. For the same molecule, the GI50 in the assay on NCI-H226, in the assay on TK-10, with ACHN, with SNB-19, in the assay on NCI-H23 and with HT-29 was > 100 µM (inactive) each time. In addition, the GI50 with SK-OV-3, in the assay on HOP-92, in the assay on NCI/ADR-RES, with HOP-62 and with DU-145 was > 100 µM (inactive) in each case.

Take `COCCN(CCOC)C(=O)COc1c2cc(C(C)(C)C)cc1Cc1cc(C(C)(C)C)cc(c1OCC(=O)N(CCOC)CCOC)Cc1cc(C(C)(C)C)cc(c1OCC(=O)N(CCOC)CCOC)Cc1cc(C(C)(C)C)cc(c1OCC(=O)N(CCOC)CCOC)Cc1cc(C(C)(C)C)cc(c1OCC(=O)N(CCOC)CCOC)C2`: the GI50 with UO-31 was 0.366 µM (active); with SK-MEL-5, 1.32 µM (inactive); in the assay on OVCAR-4 it was 0.467 µM (active); in the assay on IGROV-1 it was 1.18 µM (inactive); with 786-0 it was 2.15 µM (inactive); with HCT-15, 2.81 µM. In addition, the GI50 in the assay with NCI-H226 was 1.28 µM (inactive); in the assay with TK-10 it was 2.76 µM (inactive); in the assay with ACHN, 0.817 µM (active); in the assay with SNB-19, 1.34 µM (inactive); in the assay on NCI-H23, 1.19 µM (inactive); in the assay on HT-29, 0.908 µM (active). In addition, the GI50 was 3.05 µM (inactive) in the assay on SK-OV-3; 1.39 µM (inactive) in the assay on OVCAR-8; 10.7 µM (inactive) with NCI/ADR-RES; 1.73 µM (inactive) in the assay on HOP-62; 2.81 µM (inactive) in the assay with DU-145.

Regarding `CC(=O)[C@]12OC(=O)C3=C1[C@H](CC[C@@H]3C)[C@@H](C)C[C@H]2C=C(C)C`, the GI50 with UO-31 was 8.22 µM (inactive); in the assay with SK-MEL-5, 5.52 µM (inactive); with IGROV-1, 7.35 µM (inactive); in the assay on 786-0 it was 8.55 µM (inactive); in the assay with HCT-15 it was 7.96 µM; in the assay with NCI-H226 it was 8.28 µM (inactive). The GI50 in the assay on ACHN was 8.11 µM (inactive); in the assay with SNB-19 it was 8.09 µM (inactive); in the assay with NCI-H23, 9.14 µM (inactive); in the assay on HT-29, 6.79 µM (inactive); in the assay with SK-OV-3, 11 µM (inactive); in the assay on OVCAR-8 it was 8.49 µM (inactive). Besides, the GI50 in the assay on HOP-92 is 1.43 µM (inactive); in the assay on NCI/ADR-RES it was 9.12 µM (inactive); in the assay on HOP-62, 8.61 µM (inactive); in the assay on DU-145, 8.09 µM (inactive).

Consider `C1CCCCC2(CCCCCCCCC3(CCC1)SCCS3)SCCS2`, for which the GI50 was > 100 µM (inactive) with SK-MEL-5; > 100 µM (inactive) in the assay on OVCAR-4; > 100 µM (inactive) in the assay on IGROV-1; > 100 µM (inactive) with 786-0; more than 100 µM with HCT-15; > 100 µM (inactive) in the assay on NCI-H226. For the same molecule, the GI50 in the assay on TK-10, in the assay with ACHN, with SNB-19, with NCI-H23, in the assay on HT-29 and in the assay with SK-OV-3 was > 100 µM (inactive) in each case. Also, the GI50 in the assay on OVCAR-8, with HOP-92, with NCI/ADR-RES, in the assay with HOP-62 and in the assay with DU-145 was > 100 µM (inactive) each time.

Take `Cc1cc(N(CCC#N)CCC#N)ccc1/C=N/NC(=O)c1cc(Cl)ccc1O`: the GI50 in the assay on SK-MEL-5 was > 100 µM (inactive); in the assay on OVCAR-4 it was > 100 µM (inactive); in the assay with IGROV-1 it was > 100 µM (inactive); in the assay with 786-0, > 100 µM (inactive); in the assay on HCT-15, more than 100 µM; in the assay on NCI-H226, > 100 µM (inactive). Also, the GI50 with TK-10, in the assay on NCI-H23, in the assay on HT-29, in the assay with SK-OV-3, in the assay on OVCAR-8 and in the assay with NCI/ADR-RES was > 100 µM (inactive) in each case. Further, the values for the GI50 in the assay with HOP-62 and in the assay with DU-145 were 60.3 µM (inactive) and > 100 µM (inactive), respectively.

In the case of `COc1ccc(NC(=O)CCc2cc(C(C)(C)C)[nH]n2)cc1`, the GI50 was > 100 µM (inactive) in the assay on UO-31; > 100 µM (inactive) with SK-MEL-5; > 100 µM (inactive) with IGROV-1; > 100 µM (inactive) in the assay on 786-0; more than 100 µM in the assay on HCT-15; > 100 µM (inactive) with NCI-H226. Besides, the GI50 in the assay with TK-10, in the assay on ACHN, with SNB-19, with NCI-H23, in the assay with HT-29 and with SK-OV-3 was > 100 µM (inactive) in each case. For the same molecule, the GI50 in the assay on OVCAR-8, in the assay on HOP-92 and in the assay on HOP-62 was > 100 µM (inactive) in each case.

As to `Cc1nc2c(O)cc3c4c(n(Cc5ccccc5)c3c2nc1C)C(=O)CCC4`, the GI50 was 56 µM (inactive) in the assay with UO-31; 25.5 µM (inactive) with SK-MEL-5; 13.9 µM (inactive) with OVCAR-4; 15.1 µM (inactive) with 786-0; more than 100 µM in the assay on HCT-15; > 100 µM (inactive) in the assay with NCI-H226. The GI50 in the assay on TK-10 was 34 µM (inactive); with ACHN, 25.2 µM (inactive); in the assay on SNB-19 it was 23.3 µM (inactive); with NCI-H23, 51.2 µM (inactive); in the assay with HT-29, > 100 µM (inactive); with SK-OV-3, 14.6 µM (inactive). The GI50 in the assay on OVCAR-8 was 12.2 µM (inactive); in the assay on HOP-92, 15.4 µM (inactive); with NCI/ADR-RES it was 32.1 µM (inactive); in the assay with HOP-62, 12.7 µM (inactive); with DU-145 it was 7.13 µM (inactive).

As usually defined, the GI50 is the concentration giving 50% growth inhibition.
